Results as given in the supplement of paper PMC10307832.

Tests used:
Assay in all cases: relative viability (nuclei count vs DMSO), 5 days (fraction); higher = more cells survive
Dovitinib = compound: CN1CCN(c2ccc3nc(-c4c(N)c5c(F)cccc5[nH]c4=O)[nH]c3c2)CC1 [Dovitinib]
How it was run: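 Cells of lung cancer lines were placed in 1536-well plates and kept overnight at 37 °C. Pinning then delivered five library-drug doses (not always all listed), spaced by √10, onto plates anchored with vehicle, and the cells were left 5 days without changing medium. One step fixed, permeabilised and stained them with Hoechst, and MetaXpress counted nuclei in 4× images. Viability, as a median over plates, is treated-well nuclei divided by vehicle-well nuclei, with acceptance only at control CV below 25% and at least one doubling.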

Dovitinib + Trametinib = compound: CN1CCN(c2ccc3nc(-c4c(N)c5c(F)cccc5[nH]c4=O)[nH]c3c2)CC1 [Dovitinib] + CC(=O)Nc1cccc(-n2c(=O)n(C3CC3)c(=O)c3c(Nc4ccc(I)cc4F)n(C)c(=O)c(C)c32)c1 [Trametinib] (partner 0.02 µM)
How it was run: (§1)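 Lung cancer cell lines were seeded in 1536-well plates and dosed by pin tool the next day, with either a single drug or a fixed anchor-drug dose combined with five library-drug doses (not always all listed) spaced in √10 steps. Five days later, one step fixed the cells and stained their nuclei (final 0.05% Triton X-100, 1% formaldehyde, 1 ug/ml Hoechst), and nuclei were counted on 4× images. Relative viability is the nuclei count in treated wells divided by the count in vehicle wells, and each value is the median of duplicate plates.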

Dovitinib + Palbociclib = compound: CN1CCN(c2ccc3nc(-c4c(N)c5c(F)cccc5[nH]c4=O)[nH]c3c2)CC1 [Dovitinib] + CC(=O)c1c(C)c2cnc(Nc3ccc(N4CCNCC4)cn3)nc2n(C2CCCC2)c1=O [Palbociclib] (partner 0.5 µM)
How it was run: as §1

Dovitinib + Luminespib = compound: CN1CCN(c2ccc3nc(-c4c(N)c5c(F)cccc5[nH]c4=O)[nH]c3c2)CC1 [Dovitinib] + CCNC(=O)c1noc(-c2cc(C(C)C)c(O)cc2O)c1-c1ccc(CN2CCOCC2)cc1 [Luminespib] (partner 0.01 µM)
How it was run: as §1

Dovitinib + OSI-027 = compound: CN1CCN(c2ccc3nc(-c4c(N)c5c(F)cccc5[nH]c4=O)[nH]c3c2)CC1 [Dovitinib] + COc1cccc2cc(-c3nc([C@H]4CC[C@H](C(=O)O)CC4)n4ncnc(N)c34)[nH]c12 [OSI-027] (partner 0.5 µM)
How it was run: as §1

Dovitinib + Tozasertib = compound: CN1CCN(c2ccc3nc(-c4c(N)c5c(F)cccc5[nH]c4=O)[nH]c3c2)CC1 [Dovitinib] + Cc1cc(Nc2cc(N3CCN(C)CC3)nc(Sc3ccc(NC(=O)C4CC4)cc3)n2)n[nH]1 [Tozasertib] (partner 0.1 µM)
How it was run: as §1

Dovitinib + Dasatinib = compound: CN1CCN(c2ccc3nc(-c4c(N)c5c(F)cccc5[nH]c4=O)[nH]c3c2)CC1 [Dovitinib] + Cc1nc(Nc2ncc(C(=O)Nc3c(C)cccc3Cl)s2)cc(N2CCN(CCO)CC2)n1 [Dasatinib] (partner 0.075 µM)
How it was run: as §1

Dovitinib + Phenformin = compound: CN1CCN(c2ccc3nc(-c4c(N)c5c(F)cccc5[nH]c4=O)[nH]c3c2)CC1 [Dovitinib] + N=C(N)NC(=N)NCCc1ccccc1 [Phenformin] (partner 250 µM)
How it was run: as §1

Dovitinib + AZD7762 = compound: CN1CCN(c2ccc3nc(-c4c(N)c5c(F)cccc5[nH]c4=O)[nH]c3c2)CC1 [Dovitinib] + NC(=O)Nc1cc(-c2cccc(F)c2)sc1C(=O)N[C@H]1CCCNC1 [AZD7762] (partner 0.2 µM)
How it was run: as §1

Dovitinib + Pemetrexed = compound: CN1CCN(c2ccc3nc(-c4c(N)c5c(F)cccc5[nH]c4=O)[nH]c3c2)CC1 [Dovitinib] + Nc1nc2[nH]cc(CCc3ccc(C(=O)N[C@@H](CCC(=O)O)C(=O)O)cc3)c2c(=O)[nH]1 [Pemetrexed] (partner 0.2 µM)
How it was run: as §1

Dovitinib + Decitabine = compound: CN1CCN(c2ccc3nc(-c4c(N)c5c(F)cccc5[nH]c4=O)[nH]c3c2)CC1 [Dovitinib] + Nc1ncn([C@H]2C[C@H](O)[C@@H](CO)O2)c(=O)n1 [Decitabine] (partner 2 µM)
How it was run: as §1

Dovitinib + Vorinostat = compound: CN1CCN(c2ccc3nc(-c4c(N)c5c(F)cccc5[nH]c4=O)[nH]c3c2)CC1 [Dovitinib] + O=C(CCCCCCC(=O)Nc1ccccc1)NO [Vorinostat] (partner 1 µM)
How it was run: as §1

Dovitinib + Olaparib = compound: CN1CCN(c2ccc3nc(-c4c(N)c5c(F)cccc5[nH]c4=O)[nH]c3c2)CC1 [Dovitinib] + O=C(c1cc(Cc2n[nH]c(=O)c3ccccc23)ccc1F)N1CCN(C(=O)C2CC2)CC1 [Olaparib] (partner 8 µM)
How it was run: as §1

Question: Which relative viability (Dovitinib; 0.02 µM) does the source give for NCI-H522 here?
Answer: 1

Question: What about the relative viability (Dovitinib; 0.06325 µM) of the same cell line?
Answer: 1.09

Question: And the relative viability (Dovitinib; 0.2 µM)?
Answer: 1.22

Question: What about the relative viability (Dovitinib; 0.6325 µM) of the same cell line?
Answer: 1.03

Question: What about the relative viability (Dovitinib; 2 µM) of the same cell line?
Answer: 0.924

Question: What about the relative viability (Dovitinib + Trametinib; first compound 0.02 µM) of the same cell line?
Answer: 0.731

Question: And the relative viability (Dovitinib + Trametinib; first compound 0.06325 µM)?
Answer: 0.656

Question: What about the relative viability (Dovitinib + Trametinib; first compound 0.2 µM) of the same cell line?
Answer: 0.829

Question: What about the relative viability (Dovitinib + Trametinib; first compound 0.6325 µM) of the same cell line?
Answer: 0.687

Question: And the relative viability (Dovitinib + Trametinib; first compound 2 µM)?
Answer: 0.933

Question: And the relative viability (Dovitinib + Palbociclib; first compound 0.02 µM)?
Answer: 1.07

Question: What about the relative viability (Dovitinib + Palbociclib; first compound 0.06325 µM) of the same cell line?
Answer: 1.05

Question: And the relative viability (Dovitinib + Palbociclib; first compound 0.2 µM)?
Answer: 0.972

Question: What about the relative viability (Dovitinib + Palbociclib; first compound 0.6325 µM) of the same cell line?
Answer: 1.19

Question: And the relative viability (Dovitinib + Palbociclib; first compound 2 µM)?
Answer: 1.06

Question: And the relative viability (Dovitinib + Luminespib; first compound 0.02 µM)?
Answer: 1.15

Question: What about the relative viability (Dovitinib + Luminespib; first compound 0.06325 µM) of the same cell line?
Answer: 0.989

Question: And the relative viability (Dovitinib + Luminespib; first compound 0.2 µM)?
Answer: 1.01

Question: And the relative viability (Dovitinib + Luminespib; first compound 0.6325 µM)?
Answer: 1.19

Question: What about the relative viability (Dovitinib + Luminespib; first compound 2 µM) of the same cell line?
Answer: 1.07

Question: And the relative viability (Dovitinib + OSI-027; first compound 0.02 µM)?
Answer: 0.685

Question: What about the relative viability (Dovitinib + OSI-027; first compound 0.06325 µM) of the same cell line?
Answer: 0.721

Question: What about the relative viability (Dovitinib + OSI-027; first compound 0.2 µM) of the same cell line?
Answer: 0.654

Question: What about the relative viability (Dovitinib + OSI-027; first compound 0.6325 µM) of the same cell line?
Answer: 0.768

Question: What about the relative viability (Dovitinib + OSI-027; first compound 2 µM) of the same cell line?
Answer: 0.686

Question: And the relative viability (Dovitinib + Tozasertib; first compound 0.02 µM)?
Answer: 0.549

Question: And the relative viability (Dovitinib + Tozasertib; first compound 0.06325 µM)?
Answer: 0.583

Question: What about the relative viability (Dovitinib + Tozasertib; first compound 0.2 µM) of the same cell line?
Answer: 0.536

Question: What about the relative viability (Dovitinib + Tozasertib; first compound 0.6325 µM) of the same cell line?
Answer: 0.54

Question: And the relative viability (Dovitinib + Tozasertib; first compound 2 µM)?
Answer: 0.665

Question: And the relative viability (Dovitinib + Dasatinib; first compound 0.02 µM)?
Answer: 0.857

Question: And the relative viability (Dovitinib + Dasatinib; first compound 0.06325 µM)?
Answer: 0.867

Question: What about the relative viability (Dovitinib + Dasatinib; first compound 0.2 µM) of the same cell line?
Answer: 0.93

Question: And the relative viability (Dovitinib + Dasatinib; first compound 0.6325 µM)?
Answer: 0.706

Question: What about the relative viability (Dovitinib + Dasatinib; first compound 2 µM) of the same cell line?
Answer: 0.887

Question: What about the relative viability (Dovitinib + Phenformin; first compound 0.02 µM) of the same cell line?
Answer: 0.637

Question: What about the relative viability (Dovitinib + Phenformin; first compound 0.06325 µM) of the same cell line?
Answer: 0.686

Question: And the relative viability (Dovitinib + Phenformin; first compound 0.2 µM)?
Answer: 0.583

Question: And the relative viability (Dovitinib + Phenformin; first compound 0.6325 µM)?
Answer: 0.625

Question: What about the relative viability (Dovitinib + Phenformin; first compound 2 µM) of the same cell line?
Answer: 0.769

Question: And the relative viability (Dovitinib + AZD7762; first compound 0.02 µM)?
Answer: 0.704

Question: What about the relative viability (Dovitinib + AZD7762; first compound 0.06325 µM) of the same cell line?
Answer: 0.81

Question: And the relative viability (Dovitinib + AZD7762; first compound 0.2 µM)?
Answer: 0.878

Question: And the relative viability (Dovitinib + AZD7762; first compound 0.6325 µM)?
Answer: 0.813

Question: What about the relative viability (Dovitinib + AZD7762; first compound 2 µM) of the same cell line?
Answer: 0.974

Question: And the relative viability (Dovitinib + Pemetrexed; first compound 0.02 µM)?
Answer: 1.05

Question: What about the relative viability (Dovitinib + Pemetrexed; first compound 0.06325 µM) of the same cell line?
Answer: 1.03

Question: And the relative viability (Dovitinib + Pemetrexed; first compound 0.2 µM)?
Answer: 1.22

Question: What about the relative viability (Dovitinib + Pemetrexed; first compound 0.6325 µM) of the same cell line?
Answer: 0.949

Question: What about the relative viability (Dovitinib + Pemetrexed; first compound 2 µM) of the same cell line?
Answer: 1.02

Question: What about the relative viability (Dovitinib + Decitabine; first compound 0.02 µM) of the same cell line?
Answer: 0.651

Question: And the relative viability (Dovitinib + Decitabine; first compound 0.06325 µM)?
Answer: 0.647

Question: And the relative viability (Dovitinib + Decitabine; first compound 0.2 µM)?
Answer: 0.665

Question: What about the relative viability (Dovitinib + Decitabine; first compound 0.6325 µM) of the same cell line?
Answer: 0.727

Question: And the relative viability (Dovitinib + Decitabine; first compound 2 µM)?
Answer: 0.785

Question: And the relative viability (Dovitinib + Vorinostat; first compound 0.02 µM)?
Answer: 0.811

Question: And the relative viability (Dovitinib + Vorinostat; first compound 0.06325 µM)?
Answer: 0.848

Question: What about the relative viability (Dovitinib + Vorinostat; first compound 0.2 µM) of the same cell line?
Answer: 0.923

Question: And the relative viability (Dovitinib + Vorinostat; first compound 0.6325 µM)?
Answer: 0.837

Question: What about the relative viability (Dovitinib + Vorinostat; first compound 2 µM) of the same cell line?
Answer: 1.01

Question: What about the relative viability (Dovitinib + Olaparib; first compound 0.02 µM) of the same cell line?
Answer: 0.729

Question: And the relative viability (Dovitinib + Olaparib; first compound 0.06325 µM)?
Answer: 0.695

Question: And the relative viability (Dovitinib + Olaparib; first compound 0.2 µM)?
Answer: 0.728

Question: What about the relative viability (Dovitinib + Olaparib; first compound 0.6325 µM) of the same cell line?
Answer: 0.634

Question: And the relative viability (Dovitinib + Olaparib; first compound 2 µM)?
Answer: 0.66
